Laboratory results as given in patent US7119123B2, “Antimicrobially active 4-methyl-4-aryl-2-pentanols, their preparation and use” (Symrise GmbH & Co. KG, priority 2004, dated 2006).

What was measured:
[1] = test system: Brevibacterium epidermidis; experiment: agar dilution method, MIC; format: cell-based; conditions: ATCC35514; Brevibacterium epidermidis ATCC 35514; Mueller-Hinton agar, aerobic, 18 h at 36° C.; read-out: MIC (minimum inhibitory concentration)
Description: (§1) Petri dishes 5.5 cm in diameter were charged with 8.7 ml freshly prepared Mueller-Hinton agar (Merck, Ref. 1.05437 or Wilkins-Chalgren agar boillon (sic), Oxoid, Ref. CM 643, supplemented with 10 g agar-agar/liter) kept liquid at 50° C., to which the various concentrations of the diluted samples were added in 3.3% (V/V)=0.3 ml. Mueller-Hinton agar that contained 3% Tween80 (Merck, Ref. 8.22 187) was used for the test germ Malassezia furfur.
(§2) 2.6 ml of the 3.3% samples were diluted with ethanol (96%; Merck, Ref. 1.00971). The further test concentrations of the particular dilution series, which were prepared in the form of geometric series, were prepared by progressive 2:1 dilution with ethanol (96%).
(§3) The concentrations indicated below relate to the pure substance and have been converted to ppm. Two agar plates were poured per test concentration and nutrient medium.
(§4) After solidification and drying (approximately 1 h at 37° C.), the test plates were inoculated in point form with, in each case, 1 μl of the test germ suspensions listed in the examples below. To check purity and identity, the bacteria (Brevibacterium epidermidis, Corynebakterium (sic) xerosis, Staphylococcus aureus; Staphylococcus epidermidis) which grow aerobically, were [lacuna] on Columbia blood agar (BioMérieux, Ref. 43049). The mould Aspergillus niger, the yeast Candida albicans and the skin fungus Trichophyton mentagrophytes were cultivated on Sabouraud agar (BioMérieux, Ref. 43555). Malassezia furfur was cultured on Sabourad-HLT agar with inhibitors (addition of Tween80: 1%; lecithin: 0.3%; histidine: 0.1%; Merck, Ref. 1.18368). Propionibacterium acnes was cultivated on Schaedler agar (BioMérieux, Ref. 43273). Further data on the test germs can be taken from Table 1.
(§5) The preparation of the test germ suspensions of the bacterial germs that grow aerobically was carried out by incubation of Mueller-Hinton broth (Merck, Ref. 1.10293) which had been inoculated with a few individual colonies of the relevant test germs, at 36° C. After a distinct turbidity had been obtained, sterile nutrient broth was added to the suspensions in such an amount that the turbidity thereof corresponded to McFarland Standard 0.5 (approx. 1.5×10^8 CFU/ml).
(§6) All test germ suspensions with the exception of Propionibacterium acnes were diluted again 1:10 with sterile broth and the germ count thereof was determined by the surface method using a Spiralometer (results: see Table 1).
(§7) The MIC (minimum inhibitory concentration) was regarded as the lowest concentration of active compound at which macroscopically there is no growth. Minimal, barely visible growth or few small individual colonies were evaluated as inhibition.
(§8) The MIC values of various (R/S)-4-methyl-4-aryl-2-pentanols were determined in accordance with the general test conditions described under 2.1. (c.f. Table 3; MIC values for (R/S[lacuna]-4-methyl-4-phenyl-2-pentanol, for (R/S)-4-methyl-4-p-tolyl-2-pentanol, (R/S)-4-methyl-4-p-cumenyl-2-pentanol and (R/S)-4-methyl-4-(4-n-butylphenyl)-2-pentanol).

Corynebacterium xerosis = experiment: agar dilution method, MIC; format: cell-based; conditions: ATCC7711; Corynebacterium xerosis ATCC 7711; Mueller-Hinton agar, aerobic, 18 h at 36° C.; read-out: MIC (minimum inhibitory concentration)
Description: as §1, §2, §3, §4, §5, §6, §7, §8

[2] = test system: Staphylococcus epidermidis; experiment: agar dilution method, MIC; format: cell-based; conditions: ATCC12228; Staphylococcus epidermidis ATCC 12228; Mueller-Hinton agar, aerobic, 18 h at 36° C.; read-out: MIC (minimum inhibitory concentration)
Description: as §1, §2, §3, §4, §5, §6, §7, §8

Escherichia coli = experiment: agar dilution method, MIC; format: cell-based; conditions: read-out: MIC (minimum inhibitory concentration)
Description: as §1, §2, §3, §7, §8

Pseudomonas aeruginosa = experiment: agar dilution method, MIC; format: cell-based; conditions: read-out: MIC (minimum inhibitory concentration)
Description: as §1, §2, §3, §7, §8

Candida albicans = experiment: agar dilution method, MIC; format: cell-based; conditions: for MIC: ATCC10231, Candida albicans ATCC 10231, Mueller-Hinton agar, aerobic, 48 h at 30° C., read-out: MIC (minimum inhibitory concentration); for effectiveness against yeasts such as Candida albicans (in words): comparison among substances 2-5
Description: as §1, §2, §3, §4
(§9) For preparation of the other test germ suspensions, the test strains were cultured on the abovementioned solid nutrient medium, harvested using sterile swabs and taken up or diluted in such an amount of Mueller-Hinton broth that the turbidity of the suspensions corresponded to McFarland standard 0.5.
as §6, §7, §8

Malassezia furfur = experiment: agar dilution method, MIC; format: cell-based; conditions: DSM6171; Malassezia furfur DSM 6171; Mueller-Hinton agar + 3% Tween 80, aerobic, 72 h at 30° C.; read-out: MIC (minimum inhibitory concentration)
Description: as §1, §2, §3, §4, §9, §6, §7, §8

[3] = test system: Trichophyton mentagrophytes; experiment: agar dilution method, MIC; format: cell-based; conditions: CBS26379; Trichophyton mentagrophytes CBS 26379; Mueller-Hinton agar, aerobic, 72 h at 30° C.; read-out: MIC (minimum inhibitory concentration)
Description: as §1, §2, §3, §4, §9, §6, §7, §8

Aspergillus niger = experiment: agar dilution method, MIC; format: cell-based; conditions: for MIC: ATCC16404, Aspergillus niger ATCC 16404, Mueller-Hinton agar, aerobic, 48 h at 30° C., read-out: MIC (minimum inhibitory concentration); for effectiveness against moulds (in words): comparison among substances 2-5
Description: as §1, §2, §3, §4, §9, §6, §7, §8

Propionibacterium acnes = experiment: agar dilution method, MIC; format: cell-based; conditions: for MIC: Cutibacterium acnes, ATCC11829, Propionibacterium acnes ATCC 11829, Wilkins-Chalgren agar, anaerobic, 72 h at 36° C., read-out: MIC (minimum inhibitory concentration); for activity against Propionibacterium acnes (in words): text comment on Table 3
Description: as §1, §2, §3, §4, §9, §7, §8

glycolysis = conditions: known from J. Dental Res. 40,384 (1961); cariostatic; cited from earlier work

Compound	MIC [1]	MIC (Corynebacterium xerosis)	MIC [2]	MIC (Escherichia coli)	MIC (Pseudomonas aeruginosa)	MIC (Candida albicans)	MIC (Malassezia furfur)	MIC [3]	MIC (Aspergillus niger)	MIC (Propionibacterium acnes)	activity against Propionibacterium acnes (in words) (Propionibacterium acnes)	effectiveness against yeasts such as Candida albicans (in words) (Candida albicans)	effectiveness against moulds (in words) (Aspergillus niger)	glycolysis-inhibiting action (in words) (glycolysis)
CCCCc1ccc(C(C)(C)CC(C)O)cc1 (racemic) [Formula 5, (R,S)-4-methyl-4-(4-n-butylphenyl)-2-pentanol]	550 µg/mL	69 µg/mL	1100 µg/mL	> 1100 µg/mL	> 1100 µg/mL	> 1100 µg/mL	550 µg/mL	69 µg/mL	> 1100 µg/mL	> 1100 µg/mL	an activity can also be observed			
CC(O)CC(C)(C)c1ccccc1 (racemic) [Formula 2, (R,S)-4-methyl-4-phenyl-2-pentanol]	1100 µg/mL	1100 µg/mL	1100 µg/mL	> 1100 µg/mL	> 1100 µg/mL	1100 µg/mL	69 µg/mL	550 µg/mL	550 µg/mL	1100 µg/mL	an activity can also be observed	most effective	most effective	a certain glycolysis-inhibiting action
Cc1ccc(C(C)(C)CC(C)O)cc1 (racemic) [Formula 3, (R,S)-4-methyl-4-p-tolyl-2-pentanol]	550 µg/mL	275 µg/mL	550 µg/mL	> 1100 µg/mL	> 1100 µg/mL	1100 µg/mL	69 µg/mL	138 µg/mL	550 µg/mL	550 µg/mL	an activity can also be observed	most effective	most effective	
CC(O)CC(C)(C)c1ccc(C(C)C)cc1 (racemic) [Formula 4, (R,S)-4-methyl-4-p-cumenyl-2-pentanol]	138 µg/mL	69 µg/mL	138 µg/mL	> 1100 µg/mL	> 1100 µg/mL	> 1100 µg/mL	550 µg/mL	69 µg/mL	> 1100 µg/mL	138 µg/mL				
